Experimental data as given in patent publication US20050186237A1, “Bird repellent” (priority 2002, published 2005).
Marks after values point to notes of the source that are not given here.

Assays:
[1] = test system: wild possums; experiment: Palatability of treated baits at possum-specific bait stations; format: in vivo, Trichosurus vulpecula
Source text: (§1) To determine the palatability of baits to wild possums and wild rats, possum-specific bait stations and rat-specific bait stations were established in bush-pasture margin and forest habitats (see FIG. 1 and FIG. 2).
The possum-specific bait station (FIG. 1) is mounted on an elevated wire stake 4 with bait 2 attached in a perforated bag 1 at top of wire 4. A plastic disc 3 is used to stop rodents (not shown) climbing wire 4 has plasticine (not shown) on it to record animal activity.
(§2) The bait stations (FIGS. 1 and 2) enable determination of the response of possums or rats to bait 2. Plasticine 5 is used to record the presence (e.g. footprints, claw marks, bite marks) and species of animal present at the bait station.
(§3) In this example the repellence of neem (a known repellent), lime (a known repellent), anthraquinone and d-pulegone (compounds of the present invention) in cereal, carrot and paste baits are tested on wild possums and rats.
(§4) The following bait treatments are compared: • standard (solution of dye+water+0.1% cinnamon oil) • cinnamamide (solution of dye+water+0.5% cinnamamide) • neem (solution of dye+water+2% neem oil) • lime (solution of dye+water+2% agricultural lime) • anthraquinone (solution of dye+water+0.75% anthraquinone formulation). • d-pulegone (solution of dye+water+1% d-pulegone) • salt (solution of dye+water+salt (10% of total bait weight))
(§5) Treatments are applied to the cereal and carrot bait surface at a rate of 10% of total bait weight. The treatments are applied to the paste bait by mixing the solution through the bait, again at a rate of 10% of total bait weight.
(§6) The treatments are placed on the bait stations as described above and possum and rat activity measured.
(§7) The following bait treatments were compared (only carrot baits are compared): • standard (solution of dye+water+0.1% cinnamon oil) • anthraquinone 1 (solution of dye+water+1% anthraquinone formulation) • anthraquinone 2 (solution of dye+water+2% anthraquinone formulation) • d-pulegone 1 (solution of dye+water+1% d-pulegone) • d-pulegone 2 (solution of dye+water+2% d-pulegone) • combination 1 (solution of dye+water+1% anthraquinone formulation+1% d-pulegone) • combination 2 (solution of dye+water+2% anthraquinone formulation+2% d-pulegone) • salt (solution of dye+water+salt (10% of total bait weight))
(§8) All quantities given in percent by weight and all bait treatment, bait station set-up and subsequent measurement are as described in Example 1.

[2] = test system: wild rats; experiment: Palatability of treated baits at rat-specific bait stations; format: in vivo, Rattus spp.
Description: as §1
The rat-specific bait station (FIG. 2) is an approximately 60 mm diameter tube 6 with bait 2 placed in the centre and tube 6 is pinned to ground with holding stake 4. Plasticine 5 is added at either end of the tube 6 to record animal activity.
as §2, §3, §4, §5, §6, §7, §8

[3] = test system: house sparrows; experiment: Sparrow treated wheat choice test, 4-day periods (Example 8, Experiment 1); format: in vivo, Passer domesticus; conditions: mean daily percentage of wheat eaten over 4-day test periods; choice with plain wheat
Description: The feeding behavior of free-ranging house sparrows (Passer domesticus) presented wheat treated with anthraquinone paired with either a novel visual cue (blue dye), cinnamon oil (containing primarily olfactory cues), or d-pulegone (containing olfactory and taste cues), was recorded, to determine the suitability of repellent combinations for preventing non-target birds from consuming pesticides or other harmful substances.
Eight independent populations of house sparrows, were trained to eat plain hulled wheat from four identical food trays on feed tables.
In Experiment 1, sparrows were presented, for 4-day periods, with a choice between plain wheat, anthraquinone treated wheat, and two of the remaining repellent combinations (anthraquinone and cinnamon oil, anthraquinone and blue dye, anthraquinone and d-pulegone (at 0.5% wt or 2.0% wt concentrations)) until all sparrow populations had been exposed to each repellent.
The consumption of plain wheat and anthraquinone treated wheat was compared to the consumption of the repellent combinations every 24 hr.

[4] = test system: brushtail possums; conditions: Day et al, 2000; cited from earlier work
[5] = test system: wild sparrows; experiment: Sparrow feed table dose response and combination test on treated wheat (Example 7); format: in vivo; conditions: FIGS. 6-8; result in words
Source text: Wild sparrow tests were used to determine the effect of the individual repellency compared with the combination repellency.
On sparrow feed tables, sparrows were offered a choice between control wheat and three doses of repellent treated wheat.

[6] = test system: rats; conditions: Day et al, 2000; cited from earlier work
[7] = test system: several bird species; conditions: 1% w/w concentration; including European starlings and northern bobwhites; cited from earlier work
[8] = Example 1, by bait treatment (cereal, carrot, paste baits), first exposure
[9] = Example 1, by bait treatment, first exposure
[10] = Example 1, by bait treatment, subsequent exposures
[11] = Example 2, carrot baits, first exposure
[12] = Example 2, carrot baits, subsequent exposures

Salt
Proportion of bait stations left untouched [1, 8]: 0.37 | Proportion of bait stations with bait eaten when encountered [1, 9]: 0.30 | Proportion of bait stations left untouched [1, 10]: 0.29 | Proportion of bait stations with bait eaten when encountered [1, 10]: 0.38 | Proportion of bait stations eaten when encountered [1, 11]: 1.00 | Proportion of bait stations left untouched [1, 11]: 0.82 | Proportion of bait stations eaten when encountered [1, 12]: 0.43* | Proportion of bait stations left untouched [1, 12]: 0.30* | Proportion of bait stations eaten when encountered [2, 9]: 0.00 | Proportion of bait stations left untouched [2, 9]: 0.86 | Proportion of bait stations eaten when encountered [2, 10]: 0.16 | Proportion of bait stations left untouched [2, 10]: 0.72 | Proportion of bait stations eaten when encountered [2, 11]: 0.22 | Proportion of bait stations left untouched [2, 11]: 0.18 | Proportion of bait stations eaten when encountered [2, 12]: 0.33* | Proportion of bait stations left untouched [2, 12]: 0.50

NC(=O)C=Cc1ccccc1 [Cinnamamide, cinnamamide]
Proportion of bait stations left untouched [1, 8]: 0.55 | Proportion of bait stations with bait eaten when encountered [1, 9]: 0.71 | Proportion of bait stations left untouched [1, 10]: 0.29 | Proportion of bait stations with bait eaten when encountered [1, 10]: 0.95 | Proportion of bait stations eaten when encountered [2, 9]: 0.67 | Proportion of bait stations left untouched [2, 9]: 0.77 | Proportion of bait stations eaten when encountered [2, 10]: 0.70 | Proportion of bait stations left untouched [2, 10]: 0.66

O=C1c2ccccc2C(=O)c2ccccc21 [Anthraquinone]
Proportion of bait stations left untouched [1, 8]: 0.67 | Proportion of bait stations with bait eaten when encountered [1, 9]: 0.80 | Proportion of bait stations left untouched [1, 10]: 0.35 | Proportion of bait stations with bait eaten when encountered [1, 10]: 1.00 | Proportion of bait stations eaten when encountered [2, 9]: 1.00 | Proportion of bait stations left untouched [2, 9]: 0.64 | Proportion of bait stations eaten when encountered [2, 10]: 0.65 | Proportion of bait stations left untouched [2, 10]: 0.57 | Wheat consumption, percentage of that offered [3]: 54% | Acceptance of treated baits by possums [4]: readily eaten by possums | Amount of wheat eaten by sparrows relative to control wheat or single repellents [5]: reduced the amount of wheat eaten by sparrows on days 3 and 4 | Acceptance of treated baits by rats / wild rodents [6]: readily take anthraquinone treated baits from bait stations

CC(C)=C1CC[C@@H](C)CC1=O [d-pulegone, d-Pulegone]
Proportion of bait stations left untouched [1, 8]: 0.52 | Proportion of bait stations with bait eaten when encountered [1, 9]: 0.87 | Proportion of bait stations left untouched [1, 10]: 0.30 | Proportion of bait stations with bait eaten when encountered [1, 10]: 0.98 | Proportion of bait stations eaten when encountered [2, 9]: 0.70 | Proportion of bait stations left untouched [2, 9]: 0.63 | Proportion of bait stations eaten when encountered [2, 10]: 0.75 | Proportion of bait stations left untouched [2, 10]: 0.55 | Repellence of birds [7]: repel several bird species | Acceptance of treated baits by possums [4]: readily take carrot baits | Amount of wheat eaten by sparrows relative to control wheat or single repellents [5]: reduced the quantity of wheat eaten by sparrows on days 1, 3 and 4 | Acceptance of treated baits by rats / wild rodents [6]: readily take carrot baits
